Results on 23 molecules are retold here after patent US6506901B2, “Substituted 2-(S)-hydroxy-3-(piperidin-4-yl-methylamino)-propyl ethers and substituted 2-aryl-2-(R)-hydroxy-1-(piperidin-4-yl-methyl)-ethylamine β-3 adrenergic receptor agonists” (Wyeth, priority 2000, dated 2003).

In this test the target is T1, human β3 receptors (Homo sapiens, UniProt P13945).
T1 construct: Full length β3 AR clones (402 amino acids) containing the last 6 amino acids of hβ3—AR; expressed in transfected cells; host or cells: CHO cells
The experiment in a line: cAMP response (SPA) in CHO cells expressing cloned human β3 adrenergic receptor. The settings on record: for EC50: CHO cells expressing human β3 receptor, cAMP, 30 min incubation, 10^−9 M to 10^−5 M; for IA(β3): maximal response compared to the maximal response of isoproterenol at 10^−5 M. The format is cell-based. On the procedure: Binding to the receptors was measured in Chinese Hamster ovary (CHO) cells that were transfected with adrenergic receptors.
Cloning of Human β3-AR Genomic DNA: cDNA was constructed by ligating four polymerase chain reaction (PCR) products using the following primers: an ATG-NarI fragment, sense primer 5′-[…]3′ and anti-sense primer 5′ […]3′; a NarI-AccI fragment, 5′ […]3′ as sense and 5′ […]3′ as anti-sense primer; an AccIi-StyI fragment, sense primer 5′ […]3′ and anti-sense primer 5′ […]3′ and a StyI-TAG fragment, with sense primer 5′ […]3′ and anti-sense primer 5′ […]3′. The corresponding primer sequences are described in Mantzoros, C. […] The four fragments are ligated into a pUC 18 plasmid (Gibco-BRL) and sequenced.
CHO cells were grown in 24-well tissue culture plates in Dulbecco's Modified Eagle Media with 10% fetal bovine serum, MEM non-essential amino acids, Penicillin-Streptompycin and Geneticin. […] Isoproterenol (10^−5 M) was used as an internal standard for comparison of activity. Cells were incubated at 37° C. on a rocker for 30 min with the β3 cells and 15 min for β1 and β2 cells. Incubation was stopped with the addition of 0.2N HCl and neutralized with 2.5N NaOH. The plates, containing the cells and neutralized media, were stored at −20 degrees celsius until ready to test for cAMP using the SPA test kit (Amersham).
Data Analysis and Results: Data collected from the SPA test procedure were analyzed as per cent of the maximal isoproterenol response at 10^−5 M. Activity curves were plotted using the SAS statistical and graphics software.

SMILES strings stand for the structures. Values joined by “and” are separate entries in the source; they are usually repeats but may differ in a detail not shown here. Identical values can stand only once.

T1 sequence (P13945 whole entry): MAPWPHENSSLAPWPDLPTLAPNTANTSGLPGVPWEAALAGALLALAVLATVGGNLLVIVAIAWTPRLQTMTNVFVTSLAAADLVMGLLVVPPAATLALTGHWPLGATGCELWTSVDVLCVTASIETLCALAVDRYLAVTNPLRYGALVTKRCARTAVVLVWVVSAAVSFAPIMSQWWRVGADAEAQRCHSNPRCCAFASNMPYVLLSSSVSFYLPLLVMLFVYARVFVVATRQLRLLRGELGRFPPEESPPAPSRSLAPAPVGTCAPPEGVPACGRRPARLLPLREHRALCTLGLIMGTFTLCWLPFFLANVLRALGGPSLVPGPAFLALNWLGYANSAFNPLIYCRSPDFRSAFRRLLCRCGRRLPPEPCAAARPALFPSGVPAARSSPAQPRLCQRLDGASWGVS

Usually EC50 stands for the concentration at which the effect is half-maximal. In the case of `O[C@@H](CNCC1CCN(CCCC(F)(F)F)CC1)COc1cccc2[nH]c3ccccc3c12` [Example 24, (2S)-1-(9H-Carbazol-4-yloxy)-3-{[1-(4,4,4-trifluoro-butyl)-piperidin-4-ylmethyl]-amino}-propan-2-ol], the EC50 stood at 943 nM and the “IA(β3)” value worked out at 0.98. The like results for `O=C(NCc1c(F)cccc1F)c1ccc(S(=O)(=O)N2CCC(CNC[C@H](O)COc3ccc(O)cc3)CC2)cc1` [Example 91, N-(2,6-Difluoro-benzyl)-4-(4-{[(2S)-2-hydroxy-3-(4-hydroxy-phenoxy)-propylamino]-methyl}-piperidine-1-sulfonyl)-benzamide] were, in that order, 110 nM and 0.72.

As to `CCCCCCC(=O)Nc1ccc(S(=O)(=O)N2CCC(CNC[C@H](O)COc3ccc(O)cc3)CC2)cc1` [Example 90, Heptanoic Acid [4-(4-{[(2S)-2-Hydroxy-3-(4-hydroxy-phenoxy)-propylamino]-methyl}-piperidine-1-sulfonyl)-phenyl]-amide], the EC50 is 269 nM and the “IA(β3)” value came to 0.91.

As to `Cc1cc2c(OC[C@@H](O)CNCC3CCN(CCC(F)(F)F)CC3)cccc2[nH]1` [Example 23, (2S)-1-(2-Methyl-1H-indol-4-yloxy)-3-{[1-(3,3,3-trifluoro-propyl)-piperidin-4-ylmethyl]-amino}-propan-2-ol], it took 1090 nM to reach a half-maximal effect (EC50) and the “IA(β3)” value is 0.66. For the molecule `CCOC(=O)c1cnn(-c2ccc(S(=O)(=O)N3CCC(CNC[C@H](O)c4ccc(O)c(NS(C)(=O)=O)c4)CC3)cc2)c1` [Example 100, Ethyl 1-{4-[(4-{[((2R)-2-Hydroxy-2-{4-hydroxy-3-[(methylsulfonyl)amino]-phenyl}ethyl)amino]methyl}piperidin-1-yl)sulfonyl]phenyl}-1H-pyrazole-4-carboxylate], it took 41 nM to reach a half-maximal effect (EC50) and the “IA(β3)” value turned out to be 1. Consider `COc1ccc(S(=O)(=O)N2CCC(CNC[C@H](O)COc3c(Br)ccc4[nH]c5ccccc5c34)CC2)cc1` [Example 34, (2S)-1-(3-Bromo-9H-carbazol-4-yloxy)-3-{[1-(4-methoxy-benzenesulfonyl)-piperidin-4-ylmethyl]-amino}-propan-2-ol], for which the concentration giving a half-maximal response (EC50) was 7000 nM and the “IA(β3)” value came out at 0.36. In the case of `COc1ccc(S(=O)(=O)N2CCC(CNC[C@H](O)COc3cccc4c3CC(=O)N4)CC2)cc1OC` [Example 44, 4-((2S)-3-{[1-(3,4-Dimethoxy-benzenesulfonyl)-piperidin-4-ylmethyl]-amino}-2-hydroxy-propoxy)-1,3-dihydro-indol-2-one], the EC50 was found to be 421 nM and the “IA(β3)” value is given as 0.46. For the molecule `CCc1cc(Br)ccc1S(=O)(=O)N1CCC(CNC[C@H](O)c2ccc(O)c(NS(C)(=O)=O)c2)CC1` [Example 168, N-(5-((1R)-2-[({1-[(4-bromo-2-ethylphenyl)sulfonyl]piperidin-4-yl}-methyl)amino]-1-hydroxyethyl}-2-hydroxyphenyl)-methanesulfonamide], the EC50 is 940 nM and the “IA(β3)” value was 0.72. Consider `CC(C)(C)c1ccc(S(=O)(=O)N2CCC(CNC[C@H](O)COc3ccc(O)cc3)CC2)cc1` [Example 160, 4-[((2S)-3-{[(1-{[4-(tert-butyl)phenyl]sulfonyl}piperidin-4-yl)methyl]amino}-2-hydroxypropyl)oxy]phenol], for which the EC50 came to 346 nM and the “IA(β3)” value is 0.85.

With `CS(=O)(=O)Nc1cc([C@@H](O)CNCC2CCN(S(=O)(=O)c3ccc(NC(=O)N4CCC[C@H]4C(=O)O)cc3)CC2)ccc1O` [Example 112, (2S)-1-({4-[(4-{[((2R)-2-Hydroxy-2-{4-hydroxy-3-[(methylsulfonyl)amino]phenyl}-ethyl)amino]methyl}piperidin-1-yl)sulfonyl]anilino}carbonyl)pyrrolidine-2-carboxylic Acid], the concentration giving a half-maximal response (EC50) came out at 131 nM and the “IA(β3)” value came out at 0.93. Turning to `COc1ccc(S(=O)(=O)N2CCC(CNC[C@H](O)COc3ccc(O)cc3)CC2)cc1` [Example 37, 4-((2S)-2-Hydroxy-3-{[1-(4-methoxy-benzenesulfonyl)-piperidin-4-ylmethyl]-amino}-propoxy)-phenol], it took 376 nM to reach a half-maximal effect (EC50) and the “IA(β3)” value came out at 1.04.

Regarding `CS(=O)(=O)Nc1cc([C@@H](O)CNCC2CCN(S(=O)(=O)c3ccc(-n4cc(C(=O)O)cn4)cc3)CC2)ccc1O` [Example 101, 1-{4-[(4-{[((2R)-2-Hydroxy-2-{4-hydroxy-3-[(methylsulfonyl)amino]-phenyl}ethyl)amino]methyl}piperidin-1-yl)sulfonyl]phenyl}-1H-pyrazole-4-carboxylic Acid], a half-maximal response (EC50) required 43 nM and the “IA(β3)” value stood at 0.93. Consider `CC(C)(C)c1ccc(S(=O)(=O)N2CCC(CNC[C@H](O)COc3cccc4[nH]c(=O)[nH]c34)CC2)cc1` [Example 162, 4-[((2S)-3-{[(1-{[4-(tert-butyl)phenyl]sulfonyl}piperidin-4-yl)methyl]-amino}-2-hydroxypropyl)oxy]-1,3-dihydro-2H-benzimidazol-2-one], for which the EC50 was 11 nM and 35 nM; the “IA(β3)” value is 0.64 and 0.94. For the molecule `COc1ccc(S(=O)(=O)N2CCC(CNC[C@H](O)COc3cccc4[nH]c(=O)[nH]c34)CC2)cc1` [Example 39, 4-((2S)-2-Hydroxy-3-{[1-(4-methoxy-benzenesulfonyl)-piperidin-4-ylmethyl]-amino}-propoxy)-1,3-dihydro-benzoimidazol-2-one], the EC50 was found to be 30 nM and the “IA(β3)” value came out at 0.81. For `Cc1cc2cccc(OC[C@@H](O)CNCC3CCN(S(=O)(=O)c4ccc(NC(=O)Nc5ccccc5)cc4)CC3)c2[nH]1` [Example 61, 1-[4-(4-{[(2S)-2-Hydroxy-3-(2-methyl-1H-indol-7-yloxy)-propylamino]-methyl}-piperidine-1-sulfonyl)-phenyl]-3-phenyl-urea], in that order: 97 nM and 0.4. Regarding `CCOC(=O)c1cccc(NC(=O)N2CCC(CNC[C@H](O)COc3ccc(O)cc3)CC2)c1` [Example 52, 3-[(4-{[(2S)-2-Hydroxy-3-(4-hydroxy-phenoxy)-propylamino]-methyl}-piperidine-1-carbonyl)-amino]-benzoic Acid Ethyl Ester], the 50% effective concentration (EC50) is 305 nM and the “IA(β3)” value was found to be 0.9. On to `CS(=O)(=O)Nc1cc([C@@H](O)CNCC2CCN(S(=O)(=O)c3ccc(NC(=O)NCc4ccc(OCC(=O)O)cc4F)cc3)CC2)ccc1O` [Example 89, [3-Fluoro-4-[[[[[4-[[4-[[[(R)-2-hydroxy-2-[4-hydroxy-3-[(methylsulfonyl)amino]phenyl]-ethy]amino]-methyl]-1-piperidinyl]sulfonyl]phenyl]amino]carbonyl]-amino]-methyl]phenoxy]acetic Acid], for which the EC50 came out at 35 nM. For `COc1ccc(S(=O)(=O)N2CCC(CNC[C@H](O)COc3cccc4[nH]c(=O)[nH]c34)CC2)cc1OC` [Example 42, 4-((2S)-2-Hydroxy-3-{[1-(3,4-dimethoxy-benzenesulfonyl)-piperidin-4-ylmethyl]-amino}-propoxy)-1,3-dihydro-benzoimidazol-2-one], the half-maximal effective concentration (EC50) worked out at 150 nM and the “IA(β3)” value came out at 0.69. Turning to `COC(=O)c1ccc(N2CCC(CNC[C@H](O)c3ccc(O)c(NS(C)(=O)=O)c3)CC2)nc1` [Example 107, Methyl 6-(4-{[((2R)-2-Hydroxy-2-{4-hydroxy-3-[(methylsulfonyl)amino]phenyl}-ethyl)amino]methyl}piperidin-1-yl)-nicotinate], the midpoint of the response, the EC50, lay at 10 nM and the “IA(β3)” value was 1.2.

Take `O=C1c2ccccc2-c2c(OC[C@@H](O)CNCC3CCN(CCC(F)(F)F)CC3)cccc21` [Example 13, 4-(2-Hydroxy-3-{[1-(3,3,3-trifluoro-propyl)-piperidin-4-ylmethyl]-amino}-propoxy)-fluoren-9-one]: the response was half-maximal at 596 nM (EC50) and the “IA(β3)” value was 0.62. Take `O=c1[nH]c2ccc(OCC(O)CNCC3CCN(S(=O)(=O)c4cccc(Br)c4)CC3)cc2[nH]1` (stereo in doubt) [Example 178]: a half-maximal response (EC50) required 210 nM and the “IA(β3)” value was 0.84.

As to `O=C(Nc1ccccc1)Nc1ccc(S(=O)(=O)N2CCC(CNC[C@H](O)COc3cccc4[nH]c(=O)[nH]c34)CC2)cc1` [Example 62, 1-[4-(4-{[2-Hydroxy-3-(2-oxo-2,3-dihydro-1H-benzoimidazol-4-yloxy)-propylamino]-methyl}-piperidine-1-sulfonyl)-phenyl]-3-phenyl-urea], the EC50 came out at 10 nM and the “IA(β3)” value is listed as 0.68. Turning to `COC(=O)[C@@H]1CCCN1C(=O)Nc1ccc(S(=O)(=O)N2CCC(CNC[C@H](O)c3ccc(O)c(NS(C)(=O)=O)c3)CC2)cc1` [Example 111, (2S)-1-({4-[(4-{[((2R)-2-Hydroxy-2-{4-hydroxy-3-[(methylsulfonyl)amino]-phenyl}ethyl)amino]methyl}piperidin-1-yl)sulfonyl]anilino}carbonyl)pyrrolidine-2-carboxylic Acid Methyl Ester], the EC50 is 95 nM and the “IA(β3)” value was 0.9.
